Key:
[1] = target: hCA IX (Homo sapiens, UniProt Q16790); assay: stopped-flow CO2 hydrase assay; conditions: for Selectivity ratio I/IX: KI hCA I / KI hCA IX; for Selectivity ratio II/IX: KI hCA II / KI hCA IX
From the text: (§3) An Applied Photophysics stopped-flow instrument was used for assaying the CA catalysed CO2 hydration activity, as reported earlier [17]. The inhibition constants were obtained by non-linear least-squares methods using PRISM 3 and the Cheng-Prusoff equation as reported earlier, and represent the mean from at least three different determinations. The four tested CA isofoms were recombinant ones obtained in-house as reported earlier [26, 27, 28, 29].

[2] = tested on: HS 578T; assay: NCI one-dose SRB assay; type: cell-based; conditions: Homo sapiens, HS 578T (Breast Cancer), 1.00E-5 Molar, read-out: Growth Percent
Procedure: (§1) First, all diamide-based benzenesulfonamides herein reported 5a–h were screened for their antitumor activity at one dose (10^−5 M) assay against a panel of sixty cancer cell lines through the National Cancer Institute (NCI) Developmental Therapeutic Program (www.dtp.nci.nih.gov), according to US-NCI protocol. The cell growth and cell viability were evaluated using the sulforhodamine B (SRB) colorimetric assay.
(§2) This assay was carried out according to the protocol of the Drug Evaluation Branch, NCI, Bethesda. The cell growth and cell viability were evaluated using the sulforhodamine B (SRB) colorimetric assay, as reported earlier.

[3] = tested on: SK-MEL-28; assay: NCI one-dose SRB assay; type: cell-based; conditions: Homo sapiens, SK-MEL-28 (Melanoma), 1.00E-5 Molar, read-out: Growth Percent
Procedure: as §1, §2

[4] = tested on: HL-60(TB); assay: NCI one-dose SRB assay; type: cell-based; conditions: Homo sapiens, HL-60(TB) (Leukemia), 1.00E-5 Molar, read-out: Growth Percent
Procedure: as §1, §2

[5] = tested on: NCI-H460; assay: NCI one-dose SRB assay; type: cell-based; conditions: Homo sapiens, NCI-H460 (Non-Small Cell Lung Cancer), 1.00E-5 Molar, read-out: Growth Percent
Procedure: as §1, §2

[6] = tested on: NCI-H226; assay: NCI one-dose SRB assay; type: cell-based; conditions: Homo sapiens, NCI-H226 (Non-Small Cell Lung Cancer), 1.00E-5 Molar, read-out: Growth Percent
Procedure: as §1, §2

[7] = tested on: HT29; assay: NCI one-dose SRB assay; type: cell-based; conditions: Homo sapiens, HT-29, HT29 (Colon Cancer), 1.00E-5 Molar, read-out: Growth Percent
Procedure: as §1, §2

[8] = tested on: LOX IMVI; assay: NCI one-dose SRB assay; type: cell-based; conditions: Homo sapiens, LOX IMVI (Melanoma), 1.00E-5 Molar, read-out: Growth Percent
Procedure: as §1, §2

[9] = tested on: UACC-257; assay: NCI one-dose SRB assay; type: cell-based; conditions: Homo sapiens, UACC-257 (Melanoma), 1.00E-5 Molar, read-out: Growth Percent
Procedure: as §1, §2

[10] = tested on: HOP-92; assay: NCI one-dose SRB assay; type: cell-based; conditions: Homo sapiens, HOP-92 (Non-Small Cell Lung Cancer), 1.00E-5 Molar, read-out: Growth Percent
Procedure: as §1, §2

[11] = tested on: HCT-116; assay: NCI one-dose SRB assay; type: cell-based; conditions: Homo sapiens, HCT-116 (Colon Cancer), 1.00E-5 Molar, read-out: Growth Percent
Procedure: as §1, §2

[12] = tested on: OVCAR-8; assay: NCI one-dose SRB assay; type: cell-based; conditions: Homo sapiens, OVCAR-8 (Ovarian Cancer), 1.00E-5 Molar, read-out: Growth Percent
Procedure: as §1, §2

[13] = tested on: EKVX; assay: NCI one-dose SRB assay; type: cell-based; conditions: Homo sapiens, EKVX (Non-Small Cell Lung Cancer), 1.00E-5 Molar, read-out: Growth Percent
Procedure: as §1, §2

[14] = tested on: U251; assay: NCI one-dose SRB assay; type: cell-based; conditions: Homo sapiens, U-251, U251 (CNS Cancer), 1.00E-5 Molar, read-out: Growth Percent
Procedure: as §1, §2

[15] = tested on: SK-MEL-5; assay: NCI one-dose SRB assay; type: cell-based; conditions: Homo sapiens, SK-MEL-5 (Melanoma), 1.00E-5 Molar, read-out: Growth Percent
Procedure: as §1, §2

[16] = tested on: ACHN; assay: NCI one-dose SRB assay; type: cell-based; conditions: Homo sapiens, ACHN (Renal Cancer), 1.00E-5 Molar, read-out: Growth Percent
Procedure: as §1, §2

[17] = tested on: NCI-H522; assay: NCI one-dose SRB assay; type: cell-based; conditions: Homo sapiens, NCI-H522 (Non-Small Cell Lung Cancer), 1.00E-5 Molar, read-out: Growth Percent
Procedure: as §1, §2

[18] = tested on: COLO 205; assay: NCI one-dose SRB assay; type: cell-based; conditions: Homo sapiens, COLO 205 (Colon Cancer), 1.00E-5 Molar, read-out: Growth Percent
Procedure: as §1, §2

[19] = tested on: RXF 393; assay: NCI one-dose SRB assay; type: cell-based; conditions: Homo sapiens, RXF 393 (Renal Cancer), 1.00E-5 Molar, read-out: Growth Percent
Procedure: as §1, §2

[20] = tested on: SK-MEL-2; assay: NCI one-dose SRB assay; type: cell-based; conditions: Homo sapiens, SK-MEL-2 (Melanoma), 1.00E-5 Molar, read-out: Growth Percent
Procedure: as §1, §2

[21] = tested on: SW-620; assay: NCI one-dose SRB assay; type: cell-based; conditions: Homo sapiens, SW-620 (Colon Cancer), 1.00E-5 Molar, read-out: Growth Percent
Procedure: as §1, §2

[22] = tested on: RPMI-8226; assay: NCI one-dose SRB assay; type: cell-based; conditions: Homo sapiens, RPMI-8226 (Leukemia), 1.00E-5 Molar, read-out: Growth Percent
Procedure: as §1, §2

[23] = tested on: SNB-75; assay: NCI one-dose SRB assay; type: cell-based; conditions: Homo sapiens, SNB-75 (CNS Cancer), 1.00E-5 Molar, read-out: Growth Percent
Procedure: as §1, §2

[24] = tested on: MDA-MB-435; assay: NCI one-dose SRB assay; type: cell-based; conditions: Homo sapiens, MDA-MB-435 (Melanoma), 1.00E-5 Molar, read-out: Growth Percent
Procedure: as §1, §2

[25] = tested on: OVCAR-4; assay: NCI one-dose SRB assay; type: cell-based; conditions: Homo sapiens, OVCAR-4 (Ovarian Cancer), 1.00E-5 Molar, read-out: Growth Percent
Procedure: as §1, §2

[26] = tested on: panel of sixty cancer cell lines; assay: NCI one-dose SRB assay, whole panel; type: cell-based; conditions: Homo sapiens, mean over the panel, 1.00E-5 Molar, read-out: Mean Growth Percent
Procedure: as §1, §2

[27] = target: hCA XII (Homo sapiens, UniProt O43570); assay: stopped-flow CO2 hydrase assay; conditions: for Selectivity ratio I/XII: KI hCA I / KI hCA XII; for Selectivity ratio II/XII: KI hCA II / KI hCA XII
Chain of hCA XII (O43570 25-354): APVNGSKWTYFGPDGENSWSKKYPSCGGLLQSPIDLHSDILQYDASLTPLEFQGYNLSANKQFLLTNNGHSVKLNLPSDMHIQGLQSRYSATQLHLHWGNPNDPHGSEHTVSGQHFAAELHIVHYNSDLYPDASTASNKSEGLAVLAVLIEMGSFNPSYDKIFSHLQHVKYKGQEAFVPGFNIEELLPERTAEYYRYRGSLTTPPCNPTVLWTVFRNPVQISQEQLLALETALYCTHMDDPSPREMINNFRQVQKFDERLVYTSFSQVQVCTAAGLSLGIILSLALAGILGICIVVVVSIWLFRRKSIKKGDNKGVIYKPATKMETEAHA
From the text: as §3

[28] = target: hCA I (Homo sapiens, UniProt P00915); assay: stopped-flow CO2 hydrase assay
Chain of hCA I (P00915 whole entry): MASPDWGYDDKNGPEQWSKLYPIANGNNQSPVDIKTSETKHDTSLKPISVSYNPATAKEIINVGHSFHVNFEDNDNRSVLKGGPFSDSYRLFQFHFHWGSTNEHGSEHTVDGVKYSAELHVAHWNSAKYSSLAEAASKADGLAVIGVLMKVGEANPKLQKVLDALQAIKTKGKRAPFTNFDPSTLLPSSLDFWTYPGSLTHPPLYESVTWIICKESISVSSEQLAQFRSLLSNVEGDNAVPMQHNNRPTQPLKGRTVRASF
From the text: as §3

[29] = tested on: UO-31; assay: NCI one-dose SRB assay; type: cell-based; conditions: Homo sapiens; for activity at 10 µM: UO-31 (Renal Cancer), 1.00E-5 Molar, one dose, read-out: Growth Percent
Procedure: as §1
The obtained data were reported as mean-graph of the percentage growth of the different treated tumour cells (Supplementary Materials). Exploration of results for this assay confirmed that the examined diamide-based benzenesulfonamides 5a–h had non-significant activity towards most NCI cancer cell lines.
as §2

| SMILES | Ki [1] [nM] | Selectivity ratio I/IX [1] | Selectivity ratio II/IX [1] | melting point [°C] | activity at 10 µM [2] [%] | activity at 10 µM [3] [%] | activity at 10 µM [4] [%] | activity at 10 µM [5] [%] | activity at 10 µM [6] [%] | activity at 10 µM [7] [%] | activity at 10 µM [8] [%] | activity at 10 µM [9] [%] | activity at 10 µM [10] [%] | activity at 10 µM [11] [%] | activity at 10 µM [12] [%] | activity at 10 µM [13] [%] | activity at 10 µM [14] [%] | activity at 10 µM [15] [%] | activity at 10 µM [16] [%] | activity at 10 µM [17] [%] | also measured |
| --- | --- | --- | --- | --- | --- | --- | --- | --- | --- | --- | --- | --- | --- | --- | --- | --- | --- | --- | --- | --- | --- |
| Cc1ccc(C=C(NC(=O)c2ccccc2)C(=O)Nc2ccc(S(N)(=O)=O)cc2)cc1 [Compound 5d, N-(3-Oxo-3-((4-sulfamoylphenyl)amino)-1-(p-tolyl)prop-1-en-2-yl)benzamide] | 62.1 | 12.8 | 1.5 | 255 to 258 | 117 | 118 | 88.5 | 108 | 105 | 103 | 99 | 105 | 109 | 99.3 | 98.3 | 108 | 99 | 97 | 108 | 89.9 | activity at 10 µM [18]: 117%; activity at 10 µM [19]: 116%; activity at 10 µM [20]: 102%; activity at 10 µM [21]: 113%; activity at 10 µM [22]: 107%; activity at 10 µM [23]: 92.6%; activity at 10 µM [24]: 92.9%; activity at 10 µM [25]: 90.6%; activity at 10 µM [26]: 102%; Ki [27]: 60.2 nM; Selectivity ratio I/XII [27]: 13.2; Ki [28]: 796 nM; activity at 10 µM [29]: 87% |
| COc1ccc(C=C(NC(=O)c2ccccc2)C(=O)Nc2ccc(S(N)(=O)=O)cc2)c(OC)c1 [Compound 5f, N-(1-(2,4-Dimethoxyphenyl)-3-oxo-3-((4-sulfamoylphenyl)amino)prop-1-en-2-yl)benzamide] | 73.7 | 69.9 | 4 | 245 to 250 | 106 | 109 | 103 | 109 | 98.4 | 106 | 99.8 | 99.6 | 114 | 104 | 100 | 97.3 | 100 | 102 | 103 | 88.2 | activity at 10 µM [18]: 118%; activity at 10 µM [19]: 108%; activity at 10 µM [20]: 102%; activity at 10 µM [21]: 107%; activity at 10 µM [22]: 109%; activity at 10 µM [23]: 92.9%; activity at 10 µM [24]: 97%; activity at 10 µM [25]: 104%; activity at 10 µM [26]: 103%; Ki [27]: 134 nM; Selectivity ratio I/XII [27]: 38.2; Selectivity ratio II/XII [27]: 2.2; Ki [28]: 5130 nM; activity at 10 µM [29]: 82.5% |
| COc1ccc(C=C(NC(=O)c2ccccc2)C(=O)Nc2ccc(S(N)(=O)=O)cc2)cc1OC [Compound 5g, N-(1-(3,4-Dimethoxyphenyl)-3-oxo-3-((4-sulfamoylphenyl)amino)prop-1-en-2-yl)benzamide] | 123 | 17.9 | 3.6 | 250 to 253 | 94.8 | 109 | 101 | 107 | 93.3 | 106 | 100 | 101 | 126 | 109 | 97.1 | 103 | 96.3 | 99.3 | 99.8 | 89.1 | activity at 10 µM [18]: 110%; activity at 10 µM [19]: 118%; activity at 10 µM [20]: 102%; activity at 10 µM [21]: 102%; activity at 10 µM [22]: 107%; activity at 10 µM [23]: 103%; activity at 10 µM [24]: 107%; activity at 10 µM [25]: 105%; activity at 10 µM [26]: 103%; Ki [27]: 9.8 nM; Selectivity ratio I/XII [27]: 225.3; Selectivity ratio II/XII [27]: 45.7; Ki [28]: 2210 nM; activity at 10 µM [29]: 77.9% |
| Cc1ccc(C=C(NC(=O)c2ccccc2)C(=O)Nc2ccc(S(N)(=O)=O)cc2)o1 [Compound 5h, N-(1-(5-Methylfuran-2-yl)-3-oxo-3-((4-sulfamoylphenyl)amino)prop-1-en-2-yl)benzamide] | 8.3 | 985 | 13.8 | 240 to 243 | 76.5 | 114 | 94.6 | 101 | 102 | 86.3 | 94.9 | 99.4 | 70.1 | 89.1 | 95.5 | 98 | 88.9 | 82.3 | 90.9 | 85.7 | activity at 10 µM [18]: 108%; activity at 10 µM [19]: 95.5%; activity at 10 µM [20]: 97.4%; activity at 10 µM [21]: 106%; activity at 10 µM [22]: 84.7%; activity at 10 µM [23]: 81.5%; activity at 10 µM [24]: 99.3%; activity at 10 µM [25]: 86.2%; activity at 10 µM [26]: 94.6%; Ki [27]: 57.9 nM; Selectivity ratio I/XII [27]: 141.2; Selectivity ratio II/XII [27]: 2; Ki [28]: 8180 nM; activity at 10 µM [29]: 65.2%; inhibition at 10 µM ([29]; UO-31, one dose 10^−5 M, read-out: percentage growth inhibition (GI%)): 35% |
